Measurements reported in patent US20230112418A1, “COMPOUND AND RADIOACTIVE LABELING COMPOUND” (NIHON MEDI-PHYSICS CO., LTD., priority 2020, published 2023).

System: LNCaP cells (PSMA positive)
Test: Evaluation of binding using cultured cells (LNCaP)
Format: cell-based, human
Conditions: FIG. 4
Description: LNCaP cells (PSMA positive, human prostate cancer) and PC-3 cells (PSMA negative, human prostate cancer) were used. These cells were purchased from American Type Culture Collection and DS Biomedical, respectively. The LNCaP cells and the PC-3 cells were each cultured in RPMI 1640 containing antibiotics (penicillin and streptomycin) and 10% inactivated fetal bovine serum, manufactured by Nacalai Tesque, Inc. at 37° C. under 5% CO2.
The LNCaP cells and the PC-3 cells were each seeded in a 12 well plate at 4.0×10^5 cells/well, and allowed to stand at 37° C. under 5% CO2 for 48 hours.
The culture medium was removed, and an assay medium (0.5% FBS-containing RPMI 1640 medium) solution (1 mL) containing [^111In]In-PSMA-DA1 or [^111In]In-PSMA-DB (37 kBq) was added to the residue. Thereafter, the plate was allowed to stand at 37° C. under 5% CO2 for one hour. […]
The radioactivity of each of the assay medium and the cell lysate was measured with a gamma counter. Separately from this, the total protein concentration in the cell lysate was calculated using a BCA Protein Assay Kit manufactured by Thermo Fisher Scientific. A value (% ID/mg protein) obtained by dividing the percentage (% ID) of the amount of radioactivity of a sample to the amount of added radioactivity by the total protein mass was calculated for each sample.
Data was expressed as mean±standard deviation. […]

O=C([O-])CN1CCN(C(CCC(=O)NCCCC[C@H](NC(=O)N[C@@H](CCC(=O)O)C(=O)O)C(=O)O)C(=O)[O-])CCN(CC(=O)[O-])CCN(C(CCC(=O)Nc2ccccc2)C(=O)[O-])CC1.[111In+3] (some centres unmarked) [[^111In]In-PSMA-DB]
Effect of excess 2-PMPA on binding (in words) (2-PMPA 100 μM): significantly reduced | Binding property LNCaP vs PC-3 cells (in words): higher binding property to the LNCaP cells than the PC-3 cells
